In patent publication US8530404B2, “Compounds and methods for treatment of cancer” (FibroGen, Inc., priority 2005, dated 2013):

Tested on: NDRG1 gene expression
Assay: NDRG1 gene expression in Kelly neuroblastoma cells (Affymetrix microarray)
Type: cell-based
Conditions: 20 μM, 6 hours, vs 0.5% DMSO control
Description: To identify compounds useful in the methods of the present invention, the following studies were performed. The effect of compounds of the present invention on expression of various genes associated with anti-tumor activity (e.g., genes having anti-proliferative activity, genes having pro-apoptotic activity, genes having anti-tumor activity, etc.). In these experiments, the effect of compounds on BNIP3, BNIP3L, NDRG1, CDKN1C, and REDD1/RTP801 gene expression in various types of cultured tumor cells line was examined, including Hep3B cells (human hepatocellular carcinoma), Kelly neuroblastoma cells, and MCF7 cells (human breast cancer)
The effects of various compounds of the present invention on the expression of genes associated with tumor growth and progression were examined in Kelly neuroblastoma cells as follows. Kelly neuroblastoma cells were grown in RPMI media. […]
RNA was isolated from the Kelly neuroblastoma cells using a commercial kit and used for the preparation of cDNA. BNIP3, CDKN1C, and 18S RNA levels were measured using commercial kits (18S, Applied Biosystems cat#4319413E); BNIP3, Applied Biosystems cat#HS00969293 MH). […] Kelly cell NDRG1 and BNIP3L mRNA levels were measured by Affymetrix microarray in a separate study. […]

COc1ccc(Oc2ccc3c(O)c(C(=O)NCC(=O)O)ncc3c2)cc1 [Compound C, {[4-Hydroxy-7-(4-methoxy-phenoxy)-isoquinoline-3-carbonyl]-amino}-acetic acid]
fold-increase in NDRG1 mRNA expression: 7.3 fold
